*1 amine or outer side, *2 acyl side, *3 side chain or, on linkers, in order; H or OH if unused. Where a SMILES comes first, the peptide text is derived from it. Bridges are numbered along the chain shown (N, C = ends). [ ]: non-standard residue; d: D form. The star is where a group is joined. C20 diacid = O=C(O)CCCCCCCCCCCCCCCCCCC(=O)*; γGlu = O=C(O)[C@H](CCC(=O)[*:2])N[*:1]; Hyp = O=C(O)[C@@H]1C[C@@H](O)CN1; NMeI = CC[C@H](C)[C@H](NC)C(=O)O; Aad = N[C@@H](CCCC(=O)O)C(=O)O; Orn = NCCC[C@H](N)C(=O)O; Sar = CNCC(=O)O

This is an account of results in patent US20210115104A1, “AMYLIN ANALOGUES” (Zealand Pharma A/S, priority 2015, published 2021).

The target in experiment [1] is T1, human amylin receptor 3 (hAMYR3), hCTR2 co-expressed with hRAMP3 (Homo sapiens, UniProt O60896+P30988).
T1 construct: expressed in transfected cells
T1 sequence (P30988 25-474): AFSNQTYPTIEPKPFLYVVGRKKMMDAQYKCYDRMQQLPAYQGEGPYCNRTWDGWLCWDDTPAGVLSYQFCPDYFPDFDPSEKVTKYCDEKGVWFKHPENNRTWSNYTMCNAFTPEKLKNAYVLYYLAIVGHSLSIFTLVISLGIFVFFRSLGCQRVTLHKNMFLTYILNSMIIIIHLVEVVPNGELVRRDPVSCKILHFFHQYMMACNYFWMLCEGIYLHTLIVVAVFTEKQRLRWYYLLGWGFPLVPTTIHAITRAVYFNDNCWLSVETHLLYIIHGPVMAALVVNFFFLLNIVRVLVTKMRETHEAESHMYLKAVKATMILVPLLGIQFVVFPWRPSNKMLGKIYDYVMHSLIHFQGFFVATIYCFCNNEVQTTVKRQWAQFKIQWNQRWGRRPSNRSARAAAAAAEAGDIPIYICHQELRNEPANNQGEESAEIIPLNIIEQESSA
T1 sequence (O60896 24-148 partner): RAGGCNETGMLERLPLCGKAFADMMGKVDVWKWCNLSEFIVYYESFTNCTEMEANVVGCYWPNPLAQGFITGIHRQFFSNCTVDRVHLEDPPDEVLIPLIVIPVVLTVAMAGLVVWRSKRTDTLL
The experiment can be described thus: hAMYR3 cAMP assay (AlphaScreen) in COS7 cells. Format: cell-based. Particulars: cAMP induction, COS7 cells expressing hAMYR3; Table 1; read-out: hAMYR3 EC50. The procedure, abridged:
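Stable COS7 clone co-expressing hCTR2 and hRAMP3 was exposed to increasing peptide concentrations in Tyrode buffer (pH 7.4) with 100 µM IBMX and 0.1% casein for 15 min at 37 °C. Lysate cAMP was measured by AlphaScreen; EC50 came from 4-parameter logistic fitting.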
In general terms: Cyclic AMP is a second messenger, typically raised through Gs and lowered through Gi signalling.

For experiment [2], the target named is T2, human calcitonin receptor (hCTR2) (Homo sapiens, UniProt P30988).
T2 construct: expressed in transfected cells
T2 sequence (P30988 25-474): T1 sequence (P30988 25-474)
The experiment can be described thus: hCTR2 cAMP assay (AlphaScreen) in COS7 cells. The class given is cell-based. Particulars: cAMP induction, COS7 cells expressing hCTR2; Table 1; read-out: hCTR2 EC50. Put shortly:
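Stable hCTR2 clone in RAMP-naïve COS7 cells stimulated 15 min at 37 °C with increasing peptide concentrations in Tyrode buffer pH 7.4 containing IBMX and 0.1% casein. cAMP in lysates measured by AlphaScreen; EC50 from 4-parameter logistic fit.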

As to `CC[C@H](C)[C@@H](C(=O)N[C@@H](CC(C)C)C(=O)N[C@@H](CO)C(=O)N[C@@H](CO)C(=O)N[C@H](C(=O)N[C@@H](CCC(=O)O)C(=O)N[C@H](C(=O)NCC(=O)N[C@@H](CO)C(=O)NCC(=O)N[C@H](C(=O)N1C[C@H](O)C[C@H]1C(N)=O)[C@@H](C)O)C(C)C)[C@@H](C)O)N(C)C(=O)[C@H](C)NC(=O)CN(C)C(=O)[C@H](Cc1ccccc1)NC(=O)[C@H](CO)NC(=O)[C@H](CO)NC(=O)[C@H](CCCNC(=N)N)NC(=O)[C@H](CCC(N)=O)NC(=O)[C@H](CC(C)C)NC(=O)[C@H](Cc1ccccc1)NC(=O)[C@H](Cc1c[nH]cn1)NC(=O)[C@H](C)NC(=O)[C@H](CC(C)C)NC(=O)[C@H](CCCNC(=N)N)NC(=O)[C@H](CCC(=O)O)NC(=O)[C@@H](NC(=O)[C@H](C)NC(=O)[C@@H]1CSSC[C@H](NC(=O)[C@H](CCCNC(=N)N)NC(=O)CC[C@H](NC(=O)CCCCCCCCCCCCCCCCCCC(=O)O)C(=O)O)C(=O)N2CCC[C@H]2C(=O)N[C@@H]([C@@H](C)O)C(=O)N[C@@H](C)C(=O)N[C@@H]([C@@H](C)O)C(=O)N1)[C@@H](C)O` [Compound 72, [19CD]-isoGlu-R-C( )-PTAT-C( )-ATERLAHFLQRSSF-Gly(Me)-A-Ile(Me)-LSSTEVGSGT-Hyp-NH2] ({C20 diacid-γGlu}-RCPTATCATERLAHFLQRSSF[Sar]A[NMeI]LSSTEVGSGT[Hyp]-NH2; disulfide 2-7), the EC50 in experiment [1] was found to be 0.27 nM; in experiment [2], 0.35 nM.

`CC[C@H](C)[C@@H](C(=O)N[C@@H](CC(C)C)C(=O)N[C@@H](CO)C(=O)N[C@@H](CO)C(=O)N[C@H](C(=O)N[C@@H](CCC(=O)O)C(=O)N[C@H](C(=O)NCC(=O)N[C@@H](CO)C(=O)N[C@H](C(=O)N[C@H](C(=O)N1C[C@H](O)C[C@H]1C(N)=O)[C@@H](C)O)[C@@H](C)O)C(C)C)[C@@H](C)O)N(C)C(=O)[C@H](C)NC(=O)CN(C)C(=O)[C@H](Cc1ccccc1)NC(=O)[C@H](CO)NC(=O)[C@H](CO)NC(=O)[C@H](CCCNC(=N)N)NC(=O)[C@H](CCC(N)=O)NC(=O)[C@H](CC(C)C)NC(=O)[C@H](Cc1ccccc1)NC(=O)[C@H](CC(=O)O)NC(=O)[C@H](C)NC(=O)[C@H](CC(C)C)NC(=O)[C@H](CCCNC(=N)N)NC(=O)[C@H](CCC(N)=O)NC(=O)[C@@H](NC(=O)[C@H](C)NC(=O)[C@@H]1CSSC[C@H](NC(=O)[C@H](CCCNC(=N)N)NC(=O)CC[C@H](NC(=O)CCCCCCCCCCCCCCCCCCC(=O)O)C(=O)O)C(=O)N[C@@H](CC(N)=O)C(=O)N[C@@H]([C@@H](C)O)C(=O)N[C@@H](C)C(=O)N[C@@H]([C@@H](C)O)C(=O)N1)[C@@H](C)O` [Compound 83, [19CD]-isoGlu-R-C( )-NTAT-C( )-ATQRLADFLQRSSF-Gly(Me)-A-Ile(Me)-LSSTEVGSTT-Hyp-NH2] ({C20 diacid-γGlu}-RCNTATCATQRLADFLQRSSF[Sar]A[NMeI]LSSTEVGSTT[Hyp]-NH2; disulfide 2-7): the EC50 in experiment [1] amounted to 0.32 nM; in experiment [2], 0.13 nM.

Take `CC[C@H](C)[C@@H](C(=O)N[C@@H](CC(C)C)C(=O)N[C@@H](CO)C(=O)N[C@@H](CO)C(=O)N[C@H](C(=O)N[C@@H](CCC(=O)O)C(=O)N[C@H](C(=O)NCC(=O)N[C@@H](CO)C(=O)N[C@@H](CCCN)C(=O)N[C@H](C(=O)N1CCC[C@H]1C(N)=O)[C@@H](C)O)C(C)C)[C@@H](C)O)N(C)C(=O)[C@H](C)NC(=O)CN(C)C(=O)[C@H](Cc1ccccc1)NC(=O)[C@H](CO)NC(=O)[C@H](CO)NC(=O)[C@H](CCCNC(=N)N)NC(=O)[C@@H](NC(=O)[C@H](CC(C)C)NC(=O)[C@H](Cc1ccccc1)NC(=O)[C@H](Cc1c[nH]cn1)NC(=O)[C@H](C)NC(=O)[C@H](CC(C)C)NC(=O)[C@H](CCCNC(=N)N)NC(=O)[C@H](CCC(=O)O)NC(=O)[C@@H](NC(=O)[C@H](C)NC(=O)[C@@H]1CSSC[C@H](NC(=O)[C@H](CCCNC(=N)N)NC(=O)CC[C@H](NC(=O)CCCCCCCCCCCCCCCCCCC(=O)O)C(=O)O)C(=O)NCC(=O)N[C@@H]([C@@H](C)O)C(=O)N[C@@H](C)C(=O)N[C@@H]([C@@H](C)O)C(=O)N1)[C@@H](C)O)[C@@H](C)O` [Compound 47, [19CD]-isoGlu-R-C( )-GTAT-C( )-ATERLAHFLTRSSF-Gly(Me)-A-Ile(Me)-LSSTEVGS-Orn-TP-NH2] ({C20 diacid-γGlu}-RCGTATCATERLAHFLTRSSF[Sar]A[NMeI]LSSTEVGS[Orn]TP-NH2; disulfide 2-7): the results for the EC50 in experiment [1] and in experiment [2] were 0.19 nM and 0.1 nM, respectively.

Turning to `CC[C@H](C)[C@@H](C(=O)N[C@@H](CC(C)C)C(=O)N[C@@H](CO)C(=O)N[C@@H](CO)C(=O)N[C@H](C(=O)N[C@@H](CCC(=O)O)C(=O)N[C@H](C(=O)NCC(=O)N[C@@H](CO)C(=O)N[C@@H](CC(N)=O)C(=O)N[C@H](C(=O)N1C[C@H](O)C[C@H]1C(N)=O)[C@@H](C)O)C(C)C)[C@@H](C)O)N(C)C(=O)[C@H](C)NC(=O)CN(C)C(=O)[C@H](Cc1ccccc1)NC(=O)[C@H](CO)NC(=O)[C@H](CO)NC(=O)[C@H](CCCNC(=N)N)NC(=O)[C@H](CCCC(=O)O)NC(=O)[C@H](CC(C)C)NC(=O)[C@H](Cc1ccccc1)NC(=O)[C@H](Cc1c[nH]cn1)NC(=O)[C@H](C)NC(=O)[C@H](CC(C)C)NC(=O)[C@H](CCCNC(=N)N)NC(=O)[C@H](CCC(N)=O)NC(=O)[C@@H](NC(=O)[C@H](C)NC(=O)[C@@H]1CSSC[C@H](NC(=O)[C@H](CCCNC(=N)N)NC(=O)CC[C@H](NC(=O)CCCCCCCCCCCCCCCCCCC(=O)O)C(=O)O)C(=O)N[C@@H](CC(N)=O)C(=O)N[C@@H]([C@@H](C)O)C(=O)N[C@@H](C)C(=O)N[C@@H]([C@@H](C)O)C(=O)N1)[C@@H](C)O` [Compound 50, [19CD]-isoGlu-R-C( )-NTAT-C( )-ATQRLAHFL-Aad-RSSF-Gly(Me)-A-Ile(Me)-LSSTEVGSNT-Hyp-NH2] ({C20 diacid-γGlu}-RCNTATCATQRLAHFL[Aad]RSSF[Sar]A[NMeI]LSSTEVGSNT[Hyp]-NH2; disulfide 2-7), the EC50 in experiment [1] worked out at 0.19 nM; in experiment [2], 0.12 nM.

`CC[C@H](C)[C@@H](C(=O)N[C@@H](CC(C)C)C(=O)N[C@@H](CO)C(=O)N[C@@H](CO)C(=O)N[C@H](C(=O)N[C@@H](CCC(=O)O)C(=O)N[C@H](C(=O)NCC(=O)N[C@@H](CO)C(=O)N[C@H](C(=O)N[C@H](C(=O)N1C[C@H](O)C[C@H]1C(N)=O)[C@@H](C)O)[C@@H](C)O)C(C)C)[C@@H](C)O)N(C)C(=O)[C@H](C)NC(=O)CN(C)C(=O)[C@H](Cc1ccccc1)NC(=O)[C@H](CO)NC(=O)[C@H](CO)NC(=O)[C@H](CCCNC(=N)N)NC(=O)[C@H](CCC(N)=O)NC(=O)[C@H](CC(C)C)NC(=O)[C@H](Cc1ccccc1)NC(=O)[C@H](Cc1c[nH]cn1)NC(=O)[C@H](C)NC(=O)[C@H](CC(C)C)NC(=O)[C@H](CCCNC(=N)N)NC(=O)[C@H](CCC(N)=O)NC(=O)[C@@H](NC(=O)[C@H](C)NC(=O)[C@@H]1CSSC[C@H](NC(=O)[C@H](CCCNC(=N)N)NC(=O)CC[C@H](NC(=O)CCCCCCCCCCCCCCCCCCC(=O)O)C(=O)O)C(=O)N[C@@H](CC(N)=O)C(=O)N[C@@H]([C@@H](C)O)C(=O)N[C@@H](C)C(=O)N[C@@H]([C@@H](C)O)C(=O)N1)[C@@H](C)O` [Compound 73, [19CD]-isoGlu-R-C( )-NTAT-C( )-ATQRLAHFLQRSSF-Gly(Me)-A-Ile(Me)-LSSTEVGSTT-Hyp-NH2] ({C20 diacid-γGlu}-RCNTATCATQRLAHFLQRSSF[Sar]A[NMeI]LSSTEVGSTT[Hyp]-NH2; disulfide 2-7): the EC50 in experiment [1] amounted to 0.24 nM; in experiment [2] it was 0.12 nM.

As to `CC[C@H](C)[C@@H](C(=O)N[C@@H](CC(C)C)C(=O)N[C@@H](CO)C(=O)N[C@@H](CO)C(=O)N[C@H](C(=O)N[C@@H](CCC(=O)O)C(=O)N[C@H](C(=O)NCC(=O)N[C@@H](CO)C(=O)N[C@@H](CC(N)=O)C(=O)N[C@H](C(=O)N1C[C@H](O)C[C@H]1C(N)=O)[C@@H](C)O)C(C)C)[C@@H](C)O)N(C)C(=O)[C@H](C)NC(=O)CN(C)C(=O)[C@H](Cc1ccccc1)NC(=O)[C@H](CO)NC(=O)[C@H](CO)NC(=O)[C@H](CCCNC(=N)N)NC(=O)[C@H](CCC(N)=O)NC(=O)[C@H](CC(C)C)NC(=O)[C@H](Cc1ccccc1)NC(=O)[C@H](Cc1c[nH]cn1)NC(=O)[C@H](C)NC(=O)[C@H](CC(C)C)NC(=O)[C@H](CCCNC(=N)N)NC(=O)[C@H](CCC(N)=O)NC(=O)[C@@H](NC(=O)[C@H](C)NC(=O)[C@@H]1CSSC[C@H](NC(=O)[C@H](CCCNC(=N)N)NC(=O)CC[C@H](NC(=O)CCCCCCCCCCCCCCCCCCC(=O)O)C(=O)O)C(=O)N2CCC[C@H]2C(=O)N[C@@H]([C@@H](C)O)C(=O)N[C@@H](C)C(=O)N[C@@H]([C@@H](C)O)C(=O)N1)[C@@H](C)O` [Compound 64, [19CD]-isoGlu-R-C( )-PTAT-C( )-ATQRLAHFLQRSSF-Gly(Me)-A-Ile(Me)-LSSTEVGSNT-Hyp-NH2] ({C20 diacid-γGlu}-RCPTATCATQRLAHFLQRSSF[Sar]A[NMeI]LSSTEVGSNT[Hyp]-NH2; disulfide 2-7), the EC50 worked out at 0.15 nM in experiment [1] and 0.11 nM in experiment [2].

Broadly, the EC50 is the concentration that produces a half-maximal response.
